We go through twelve compounds from ChEMBL document CHEMBL1201862, “PubChem BioAssay data set” (2004).

What all share (test): inhibition of tumour cell growth, NCI panel, 48 h
Experiment [1] deals with PC-3.
The subject of experiment [2] is IGROV-1.
The subject of experiment [3] is COLO 205.
Experiment [4] relates to KM12.
The test system of experiment [5] is Hs-578T.
The subject of experiment [6] is NCI/ADR-RES.
Experiment [7] relates to SK-MEL-2.
For experiment [8], the system named is DU-145.
Experiment [9] has as its system MOLT-4.
The subject of experiment [10] is MDA-MB-231.
The subject of experiment [11] is HOP-62.
Experiment [12] deals with OVCAR-8.
The test system of experiment [13] is MCF7.
Experiment [14] relates to UACC-62.
Experiment [15] relates to A549.
The subject of experiment [16] is SW-620.
The test system of experiment [17] is SF-539.
The test system of experiment [18] is A498.
For experiment [19], the system named is OVCAR-3.

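In this assay, cells in 96-well plates receive the compound at five concentrations for 48 hours. Endpoints are linearly interpolated between the surrounding concentrations. GI50 = concentration required for 50% inhibition of growth.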 Activity calls are given as the source filed them. No stated cut-off is given here; in the data, active = GI50 up to about 1.1 µM and inactive = higher. Bounds are passed on as bounds.

Turning to `N=c1oc2ccc([N+](=O)[O-])cc2cc1C(=O)NCc1ccccc1`, the GI50 in experiment [1] is 19.6 µM (inactive); in experiment [2] it was 12.3 µM (inactive); in [3], 20.6 µM (inactive); in experiment [4], 14.3 µM (inactive); in [5], 18.7 µM (inactive); in experiment [6], 16.5 µM (inactive). Also, the GI50 in experiment [7] was 19.3 µM (inactive); in experiment [8] it was 33 µM (inactive); in experiment [9], 27.9 µM (inactive); in experiment [10], 22 µM (inactive); in experiment [11], 38.5 µM (inactive); in experiment [12], 15.2 µM (inactive). The GI50 is 35.7 µM (inactive) in [13]; 20.2 µM (inactive) in experiment [14]; 57.1 µM (inactive) in experiment [15]; 20 µM (inactive) in experiment [16]; 17.7 µM (inactive) in experiment [17].

With `O=C(O)c1c2c(cc3c1CC1(Cc4ccccc4C1=O)C3)CCC2` (configuration not stated), the GI50 in experiment [1] is 27.2 µM (inactive); in experiment [2], > 61.5 µM (inactive); in experiment [3], 17.4 µM (inactive); in experiment [4], 14.4 µM (inactive); in [5], 34 µM (inactive); in [6], 28.7 µM (inactive). Moreover, the GI50 in experiment [7] was 19 µM (inactive); in experiment [8] it was 64 µM (inactive); in experiment [9] it was 11.4 µM (inactive); in [18] it was 33 µM (inactive); in experiment [10] it was 34.6 µM (inactive); in experiment [11] it was 64.7 µM (inactive). The GI50 in experiment [12] is 44.9 µM (inactive); in [13], 26.2 µM (inactive); in experiment [14], 21.8 µM (inactive); in experiment [15] it was 11.1 µM (inactive); in experiment [16] it was 30.1 µM (inactive); in experiment [17], 29.7 µM (inactive). For the same compound, in experiment [19], the GI50 was 26.1 µM (inactive).

For `Cc1c2ccccc2c(/C=N/NC(=O)CSCC(=O)N/N=C/c2c3ccccc3c(C)c3ccccc23)c2ccccc12`, the GI50 in [1] was > 31.4 µM (inactive); in experiment [2], > 100 µM (inactive); in experiment [4] it was > 56.4 µM (inactive); in experiment [5], 46 µM (inactive); in [6], > 63.5 µM (inactive); in experiment [7], > 78.3 µM (inactive). Besides, the GI50 was > 55.8 µM (inactive) in experiment [8]; 27.8 µM (inactive) in experiment [9]; 21.7 µM (inactive) in experiment [18]; 31.2 µM (inactive) in experiment [10]; 12.9 µM (inactive) in experiment [11]; 16.2 µM (inactive) in experiment [12]. Besides, the GI50 in experiment [13] is 23 µM (inactive); in [14], > 64.7 µM (inactive); in [15], > 64.1 µM (inactive); in experiment [16] it was > 57.4 µM (inactive); in experiment [17] it was 18.1 µM (inactive); in experiment [19] it was 47.5 µM (inactive).

`COc1cc2c(c(OC)c1OC)-c1ccc(SC)c(=O)cc1C(CC(=O)Oc1cccc(F)c1)C2` (configuration not stated): the GI50 was 0.787 µM (active) in experiment [2]; 0.153 µM (active) in experiment [3]; 0.13 µM (active) in experiment [4]; 0.397 µM (active) in experiment [7]; 0.444 µM (active) in experiment [9]; 0.0545 µM (active) in experiment [18]. The GI50 was 0.685 µM (active) in experiment [11]; 0.337 µM (active) in [12]; 0.111 µM (active) in experiment [14]; 0.577 µM (active) in experiment [15]; 0.112 µM (active) in experiment [16]; 0.111 µM (active) in [17]. Further, the GI50 in experiment [19] was 0.0946 µM (active).

As to `CC1(C)OC([C@H](O)CO)C([C@H]2NCCS2)O1` (some centres not stated), the GI50 in experiment [1], in [2], in [3], in experiment [4], in [5] and in [6] was > 100 µM (inactive) throughout. Also, the GI50 in [7], in experiment [8], in experiment [9], in [18], in [10] and in experiment [11] was > 100 µM (inactive) in each case. The GI50 in [12], in experiment [14], in [15], in experiment [16] and in experiment [19] was > 100 µM (inactive) in each case.

On to `CNS(=O)(=O)NNS(=O)(=O)c1ccc2ccccc2c1`, for which the GI50 in experiment [2], in experiment [3], in [4], in experiment [7], in experiment [9] and in experiment [18] was > 100 µM (inactive) each time. Further, the GI50 in experiment [11], in [12], in experiment [14], in experiment [15], in experiment [16] and in [17] was > 100 µM (inactive) throughout. Besides, the GI50 in experiment [19] was > 100 µM (inactive).

Turning to `CCOc1ccc(/C=C\c2cc(OC)c(OC)c(OC)c2)cc1`, the GI50 in [2] was 0.2 µM (active); in experiment [3] it was 0.0127 µM (active); in experiment [4] it was 0.00703 µM (active); in experiment [7], 0.00378 µM (active); in experiment [9], 0.000634 µM (active); in [18] it was 0.00124 µM (active). Also, the GI50 in experiment [11] is 0.000964 µM (active); in [12], 0.000456 µM (active); in [14], 0.01 µM (active); in experiment [15], 0.0006 µM (active); in experiment [16], < 0.0001 µM (active); in experiment [17] it was 0.000102 µM (active). Further, in experiment [19], the GI50 is 0.000303 µM (active).

As for `COC(=O)C1=C(c2ccc(OC)c(OC)c2)OC(c2ccc(OC)c(OC)c2)C1` (configuration not stated), the GI50 in experiment [2] was 25.1 µM (inactive); in experiment [3] it was 17.1 µM (inactive); in experiment [4], 32.7 µM (inactive); in experiment [7], 57.9 µM (inactive); in experiment [9] it was 8.17 µM (inactive); in [18] it was 12.7 µM (inactive). Further, the GI50 in experiment [11] is 59.4 µM (inactive); in experiment [12] it was 29.5 µM (inactive); in [14] it was 35.6 µM (inactive); in [15], 42.3 µM (inactive); in experiment [16], 35.3 µM (inactive); in experiment [17], 33.4 µM (inactive). In addition, the GI50 in experiment [19] was 33.9 µM (inactive).

`O=C1[C@@H]2C3SC(c4ccccc43)[C@@H]2C(=O)N1c1ccccc1`: the GI50 in experiment [2], in experiment [3], in experiment [4], in experiment [7], in [9] and in experiment [18] was > 100 µM (inactive) in each case. Also, the GI50 was > 100 µM (inactive) in experiment [11]; > 100 µM (inactive) in experiment [12]; > 100 µM (inactive) in experiment [14]; > 100 µM (inactive) in experiment [15]; > 100 µM (inactive) in experiment [16]; > 75 µM (inactive) in experiment [17]. Further, the GI50 in [19] was > 100 µM (inactive).

As for `CN(C)c1ccc(/C=C(\NC(=O)c2ccccc2)C(=O)NC(CC(=O)O)C(=O)O)cc1` (configuration not stated), the GI50 was > 100 µM (inactive) in experiment [1]; > 100 µM (inactive) in experiment [2]; > 100 µM (inactive) in [3]; 39.4 µM (inactive) in [4]; 49.7 µM (inactive) in experiment [5]; 43.7 µM (inactive) in experiment [6]. Moreover, the GI50 in [7] was > 100 µM (inactive); in experiment [8], > 100 µM (inactive); in [9], > 100 µM (inactive); in experiment [18] it was > 100 µM (inactive); in experiment [10] it was > 100 µM (inactive); in [11], 22.9 µM (inactive). For the same compound, the GI50 in experiment [12] is 68.9 µM (inactive); in experiment [13], > 100 µM (inactive); in [14], 82 µM (inactive); in [15], > 100 µM (inactive); in experiment [16], > 100 µM (inactive); in experiment [17], > 100 µM (inactive). The GI50 in experiment [19] was 52.7 µM (inactive).

Consider `O=C1NC(c2ccccc2)(c2ccccc2)C(=O)N1CCCCCCN1C(=O)NC(c2ccccc2)(c2ccccc2)C1=O`, for which the GI50 in experiment [2] was 74 µM (inactive); in experiment [3], > 100 µM (inactive); in experiment [4] it was > 100 µM (inactive); in experiment [7] it was 15.7 µM (inactive); in experiment [9] it was > 100 µM (inactive); in [18], 25.5 µM (inactive). For the same compound, the GI50 in experiment [11] was 24.8 µM (inactive); in [12] it was 22.3 µM (inactive); in experiment [14], 57.7 µM (inactive); in experiment [15], 21.2 µM (inactive); in experiment [16], 69.3 µM (inactive); in experiment [17], 18.6 µM (inactive). For the same compound, in [19], the GI50 is 83.2 µM (inactive).

With `Cn1c(=O)c2nc(/N=N/Nc3nncs3)[nH]c2n(C)c1=O`, the GI50 in [1], in [2], in experiment [3], in experiment [4], in experiment [5] and in [6] was > 100 µM (inactive) throughout. Moreover, the GI50 in [7], in experiment [8], in [9], in experiment [18], in experiment [10] and in experiment [11] was > 100 µM (inactive) throughout. The GI50 in experiment [12], in [13], in experiment [14], in experiment [15], in experiment [16] and in experiment [17] was > 100 µM (inactive) each time. The GI50 in experiment [19] is > 100 µM (inactive).
